# Test results reported in PubChem BioAssay AID1645862 (Buhrlage Lab, Dana-Farber Cancer Institute and Novartis …, 2021).
# The source made the active and inactive calls. The rule behind the calls is not given here.
# Biological target: Ubiquitin carboxyl-terminal hydrolase 8 (Homo sapiens) (UniProt P40818)
# Assay: Ubiquitin-specific protease 8 inhibitors, concentration-effect, biochemical, validation of initial actives (AID 1645862);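 note: potency reflects inhibition of USP8 cleavage of a ubiquitin rhodamine substrate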
# Details: recombinant USP8 deubiquitinase activity assay
# Sequence of Ubiquitin carboxyl-terminal hydrolase 8 (Homo sapiens) (P40818 whole entry, looked up): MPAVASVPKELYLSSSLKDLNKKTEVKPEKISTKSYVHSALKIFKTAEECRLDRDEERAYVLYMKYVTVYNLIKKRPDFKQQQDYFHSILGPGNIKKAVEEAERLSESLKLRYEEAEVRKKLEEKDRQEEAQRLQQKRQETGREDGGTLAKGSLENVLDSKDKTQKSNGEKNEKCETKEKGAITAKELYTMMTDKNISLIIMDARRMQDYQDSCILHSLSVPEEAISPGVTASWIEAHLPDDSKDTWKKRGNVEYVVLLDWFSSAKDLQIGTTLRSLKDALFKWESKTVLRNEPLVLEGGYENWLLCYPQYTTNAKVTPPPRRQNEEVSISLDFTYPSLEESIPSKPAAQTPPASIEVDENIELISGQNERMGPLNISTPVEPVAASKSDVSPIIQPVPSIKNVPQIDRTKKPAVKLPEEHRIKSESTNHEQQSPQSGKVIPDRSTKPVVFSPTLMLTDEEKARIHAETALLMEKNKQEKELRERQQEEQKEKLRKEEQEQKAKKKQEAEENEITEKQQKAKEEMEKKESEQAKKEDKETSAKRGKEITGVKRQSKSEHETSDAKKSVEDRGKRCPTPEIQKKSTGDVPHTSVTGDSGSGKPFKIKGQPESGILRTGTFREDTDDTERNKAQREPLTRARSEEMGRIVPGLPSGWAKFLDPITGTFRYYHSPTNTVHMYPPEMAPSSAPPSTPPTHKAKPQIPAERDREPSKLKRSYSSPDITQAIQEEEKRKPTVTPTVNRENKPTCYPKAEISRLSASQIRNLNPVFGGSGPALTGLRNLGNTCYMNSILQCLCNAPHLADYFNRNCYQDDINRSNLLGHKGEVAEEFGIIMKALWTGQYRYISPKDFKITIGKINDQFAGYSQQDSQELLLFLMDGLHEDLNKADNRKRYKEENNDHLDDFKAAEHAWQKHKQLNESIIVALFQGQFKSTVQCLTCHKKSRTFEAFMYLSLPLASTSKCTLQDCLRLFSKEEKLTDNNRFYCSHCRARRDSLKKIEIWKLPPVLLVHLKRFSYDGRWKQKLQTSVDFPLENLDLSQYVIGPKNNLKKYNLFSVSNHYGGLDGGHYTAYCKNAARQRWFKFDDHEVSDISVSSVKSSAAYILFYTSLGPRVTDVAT
row,Compound,IC50
1,COc1ccc(-c2noc([C@@H]3C[C@H](NC(=O)Nc4ccc(C)cc4)CN3C)n2)cc1,> 40 µM (inactive)
2,COc1cc(Cl)c(NC(=O)C2Cc3ccccc3N2C(=O)c2ccccc2)c(OC)c1 (stereo not drawn),> 40 µM (inactive)
3,COc1ccc(N2CC(c3nnc(NC(=O)CCc4ccccc4)s3)CC2=O)cc1 (stereo not drawn),> 40 µM (inactive)
4,COc1ccc(NC(=O)CNC(=O)c2ccc3nc(-n4cccc4)sc3c2)cc1,> 40 µM (inactive)
5,O=C1c2c(O)c(Cl)cc3c2[C@@]2(Oc4ccc(O)c5c4[C@]3(O2)[C@@H]2O[C@@H]2C5=O)[C@@H]2O[C@H]12,1.09 µM
6,Cc1ccc(OCc2nc3ccccc3n2CC(=O)Nc2ccc(C(F)(F)F)cc2)cc1,> 40 µM (inactive)
7,CSc1ccccc1C(=O)Nc1sc2c(c1C(N)=O)CCC(C)C2 (stereo not drawn),> 40 µM (inactive)
8,CSc1nc(NCc2ccccc2)c2sc3nc(N4CCOCC4)c4c(c3c2n1)CC(C)(C)OC4,> 40 µM (inactive)
9,CCn1c(SCC(=O)Nc2ccc(C)c(Cl)c2)nnc1-c1ccc2c(c1)OCCO2,> 40 µM (inactive)
10,CCCn1cc(-c2nc(-c3ccccn3)no2)c(=O)c2ccccc21,> 40 µM (inactive)
11,Cc1ccc(-n2cc(C(=O)NCCCc3ccccc3)nn2)cc1,> 40 µM (inactive)
12,COc1cccc(C(=O)Nc2ccc(SC(C)C(=O)Nc3ccc(C(N)=O)cc3)cc2)c1 (stereo not drawn),> 40 µM (inactive)
13,COC(=O)c1ccccc1NC(=O)Cn1c(=O)n(Cc2ccc(C(=O)NCc3ccco3)cc2)c(=O)c2ccccc21,> 40 µM (inactive)
14,COc1cc2cc3c(c(O)c2c(O)c1-c1c(OC)cc2cc4c(c(O)c2c1O)C(=O)OC1CC(C)OC41)C(=O)OC1CC(C)OC31 (stereo not drawn),0.972 µM
15,Cc1nnc(NC(=O)C2CC(=O)N(CCc3ccc(F)cc3)C2)s1 (stereo not drawn),> 40 µM (inactive)
16,CCOc1ccc(NC(=O)Cn2cc(C(=O)c3ccc(Cl)cc3)c(=O)c3cc(OC)ccc32)cc1,> 40 µM (inactive)
17,Cc1ccc2c(CNCCC3=CCCCC3)c(C(=O)O)n(C)c2c1,> 40 µM (inactive)
18,Cc1cc(C)c(NC(=O)Cc2sc(Nc3ccc(C)c(C)c3)nc2O)c(C)c1,> 40 µM (inactive)
19,CCc1cccc(NC(=O)Cc2nnc3ccc(-c4nc(C)no4)cn23)c1,> 40 µM (inactive)
20,O=C(C1=CSCCO1)N1CCc2ccccc2C1,> 40 µM (inactive)

row,Compound,IC50
1,Nc1c(-c2ccc(Cl)cc2)cnc2cc(-c3ccc(Cl)c(Cl)c3)nn12,> 40 µM (inactive)
2,O=C(NCCc1nc2ccccc2n1CCOc1ccccc1Cl)C1CCCCC1,> 40 µM (inactive)
3,Cc1ccc(CNC(=O)c2nc(-c3ccc4c(c3)OCC(=O)N4C)no2)cc1,> 40 µM (inactive)
4,COc1ccc(-c2cc3n(c(=N)c2C#N)CCc2cc4c(cc2-3)OCO4)cc1O,> 40 µM (inactive)
5,CCCn1cc(C(=O)N2CCC3(CC2)CC2(CO3)Nc3ccccc3-n3cccc32)c(C)n1 (stereo not drawn),37.2 µM
6,O=C(NCc1ccc2c(c1)OCO2)c1cc2c(s1)CCC2,16.1 µM
7,Cc1nc2c(c(C)c1CCC(=O)Nc1ccccc1F)c(=O)n(C)c(=O)n2C,> 40 µM (inactive)
8,CCCn1c(=O)c(-c2ccc(C(=O)NCc3ccc(OC)cc3)cc2)nc2cccnc21,> 40 µM (inactive)
9,O=C(Cn1c(CNC(=O)c2ccccc2)nc2ccccc21)Nc1ccc(F)cc1,> 40 µM (inactive)
10,COc1ccc(COc2ccc3c(C)c(CC(=O)N4CC[C@@]5(O)CCCC[C@H]5C4)c(=O)oc3c2)cc1,> 40 µM (inactive)
11,COc1ccc(N(CC(=O)NC2CCCCC2)C(=O)c2ccc(-c3ccccc3)[nH]2)cc1OC,> 40 µM (inactive)
12,O=c1[nH]c(C2CCN(S(=O)(=O)c3ccc(S(=O)(=O)NC4CCCCC4)cc3)CC2)nc2c1nnn2Cc1c(Cl)cccc1Cl,> 40 µM (inactive)
13,CCOc1ccc(-c2noc(-c3nn(-c4cccc(OC)c4)ccc3=O)n2)cc1,34.1 µM
14,O=C1CC(c2cc3c(cc2Br)OCO3)c2cc3c(cc2N1)OCCO3 (stereo not drawn),> 40 µM (inactive)
15,NC(=O)C1(N2CCCCC2)CCN(c2ncc3c(=O)n(-c4ccccc4)c(=O)[nH]c3n2)CC1,> 40 µM (inactive)
16,O[C@H]1[C@H](NCc2cccc(C(F)(F)F)c2)[C@@H](c2cncnc2)C[C@H]1O,> 40 µM (inactive)
17,CSCCC(NC(=O)c1ccccc1)c1nc2ccccc2n1CC(=O)Nc1ccccc1 (stereo not drawn),> 40 µM (inactive)
18,O=C(NC1CCCCC1)C(c1ccc(F)cc1)N(C(=O)C1COc2ccccc2O1)c1ccc2c(c1)OCO2 (stereo not drawn),> 40 µM (inactive)
19,O=C(Nc1cccc([N+](=O)[O-])c1)Nc1ccc2snnc2c1,14.8 µM

# Results, then the compound that gave them:
row,IC50,Compound
1,> 40 µM (inactive),COC(=O)c1ccc(C(=O)Nc2cc3ccccc3cc2NC(=O)c2ccc(C(=O)OC)cc2)cc1
2,> 40 µM (inactive),CC(OC(=O)c1cc(S(=O)(=O)Nc2ccccc2F)ccc1Cl)C(=O)Nc1ccc([N+](=O)[O-])cc1C(F)(F)F (stereo not drawn)
3,> 40 µM (inactive),CCOc1ccc2c(c1)c(=O)c(C(=O)c1ccccc1)cn2CC(=O)Nc1ccc2c(c1)OCCO2
4,> 40 µM (inactive),Cc1nc(-c2ccccc2)sc1-c1nc(-c2ccccc2)ncc1S(=O)(=O)c1ccccc1
5,> 40 µM (inactive),Cc1ccc2c(c1)c1ncn(Cc3nc(C)no3)c(=O)c1n2CC(=O)NCc1ccccc1
6,> 40 µM (inactive),O=C(Nc1cccc(Cl)c1)c1cc(-c2cccnc2)n[nH]1
7,> 40 µM (inactive),CC(=O)c1ccc(NC(=O)CSc2nc(-c3ccccc3)nc3c2COC(C)(C)C3)cc1
8,> 40 µM (inactive),CCOc1ccc(NC(=O)Cn2c(-c3ccccc3)cc(C(C)=O)c2C)cc1
9,> 40 µM (inactive),O=C(Nc1cccc2ccccc12)N1CCC(c2nc3c(nnn3Cc3ccc(F)cc3)c(=O)[nH]2)CC1
10,> 40 µM (inactive),COC(=O)c1ccc2c(=O)n(CCCCCC(=O)NCc3cccc(Cl)c3)c(=O)[nH]c2c1
11,> 40 µM (inactive),Cc1ccnc(NS(=O)(=O)c2ccc(NC(=O)c3ccc(S(=O)(=O)N(C)Cc4ccccc4)cc3)cc2)n1
12,> 40 µM (inactive),COc1ccccc1NC(=O)c1nc(-c2cn(-c3cccc(F)c3)nn2)no1
13,> 40 µM (inactive),O=C(Cn1cnc(-c2noc(-c3ccc(F)cc3)n2)c1)Nc1ccccc1F
14,> 40 µM (inactive),CCOc1ccc(NC(=O)Cn2c(=O)n(CCC(=O)NCc3ccccc3OC)c(=O)c3ccccc32)cc1
15,> 40 µM (inactive),Cc1c(C)n(-c2ccccc2)c2ncn(CC(=O)NCc3cccc(F)c3)c(=O)c12
16,> 40 µM (inactive),O=C(CCCCn1c(=O)c2ccccc2n(CC(=O)Nc2ccc3c(c2)OCCO3)c1=O)NCc1ccco1
17,> 40 µM (inactive),CSc1cccc(C(=O)Nc2ccc(-c3nc4ccccc4[nH]3)cc2)c1
18,> 40 µM (inactive),CN(CC(=O)Nc1ccc(Cl)cc1)c1cnn(-c2nc3ccccc3[nH]2)c(=O)c1Cl
19,5.57 µM,O=C(NC1(O)C(=O)c2ccccc2C1=O)c1ccc(-c2csnn2)cc1
20,> 40 µM (inactive),Cc1noc(-c2cc(=O)n(CC(=O)NCc3ccccc3F)c3ccccc23)n1
21,> 40 µM (inactive),O=C(Nc1ccc(-c2nc3ccccc3o2)cc1)c1ccc(S(=O)(=O)N2CCc3ccccc3C2)cc1
22,7.76 µM,O=C1c2c(O)cccc2C2(Oc3cccc4cccc(c34)O2)C2OC12 (stereo not drawn)
23,11.2 µM,O=c1[nH]c2ccc(S(=O)(=O)Nc3ccc(O)c4ccccc34)cc2[nH]1
24,28.1 µM,CCOc1ccc(-n2c(SCC(=O)Nc3ccc(C)cc3)nnc2-c2c[nH]c3ccccc23)cc1
